From patent US5540937A, “Process for preparing microspheres for the prolonged release of the LHRH hormone and its analogues, microspheres and formulations obtained” (Rhone Merieux, priority 1992, dated 1996)

Test: solubility of the peptide in the continuous phase
Assay type: physicochemical
Settings: continuous aqueous phase (demineralized water containing 1% PVA)
From the text: Although the solubility of this peptide in water is high, high encapsulation yields are obtained.

CC(C)C[C@H](NC(=O)[C@@H](Cc1c[nH]c2ccccc12)NC(=O)[C@H](Cc1ccc(O)cc1)NC(=O)[C@H](CO)NC(=O)[C@H](Cc1c[nH]c2ccccc12)NC(=O)[C@H](Cc1c[nH]cn1)NC(=O)[C@@H]1CCC(=O)N1)C(=O)N[C@@H](CCCNC(=N)N)C(=O)N1CCC[C@H]1C(=O)NCC(N)=O [[D-Trp^6]-LHRH]
solubility in the continuous phase: about 45 mg/ml
